# In patent publication US20220226354A1, “GLP-1 SECRETION-PROMOTING COMPOSITION” (SUNTORY HOLDINGS LIMITED, priority 2019, published 2022):
# Test system: not listed separately
# Test: Dissolution of sample during sample preparation (Experimental Example 2)
# Assay type: physicochemical
# Details: final concentration of 1.5 mM (#24), 1% DMSO-containing PBS
# Experimental: To 20 mg of RebC, 21 μL of DMSO (manufactured by FUJIFILM Wako Pure Chemical Corporation, model number: 037-24053) was added. The mixture was then stirred by vortex and allowed to stand for several hours to obtain a stock solution having a RebC concentration of 1,000 mM. The obtained stock solution and PBS were used to prepare a 10 mM solution.
# The 10 mM solution was diluted as needed with 1% DMSO-containing PBS to obtain Sample G-1 mM to Sample G-10 mM. The concentrations of RebC are described in Table 1.
row,dissolution of sample,Compound
1,not able to be dissolved,rebaudioside C [RebC]

# Test system: H716
# Test: GLP-1 secretion amount of sweeteners, 24 hours (Experimental Example 1)
# Assay type: cell-based, human
# Details: H716, 24 hours after addition of stock solution, PBS as negative control (no sample)
# Experimental: RebA. RebB, RebM. RebN. RebD. RebC, MogV, and stevioside were examined for their GLP-1 secretion-promoting effects. Specifically, the amount of GLP-1 secretion was measured by the following procedures.
# Each test substance B, C, D, E, F, G, I, or J was dissolved in PBS (Thermo Fisher Scientific Inc.) (Cat. No. 14190250) to obtain a stock solution. The concentration of the stock solution is shown below:
# B (RebA); 5 mM, C (RebB); 1M, D (RebM); 2.5 mM, E (RebN); 1M, F (RebD); 2.5 mM, G (RebC); 2.5 mM, I (MogV); 1M, J(stevioside); 1M
# H716 (ATCC) (Cat. No. ATCC®, CCL-251) was cultured in RPMI 1640 (10% FBS (Thermo Fisher Scientific Inc.) (Cat. No. 10439024), 1 mM Sodium Pyruvate) in an incubator at 37° C., 5% CO2.
# The preculture was performed for 2 weeks, and the cells were sufficiently recovered, and then cell stocks were prepared.
# Cells were seeded in 96-well plates at 2×10^5 cells/90 μL (high) per well (N=4). At this time, the content of FBS in the medium was lowered to 0.5% to suppress cell proliferation.
# After 24 hours, the sample at the highest concentration (i.e., stock solution) was added by […] each.
# After further 24 hours, quantitation of GLP-1 was performed. Specific procedures were followed the user guide of Human GLP-1 (7-36 amide) Immunoassay kit (Cat. No. AL359) (Lot number 2361115) provided by PerkinElmer, Inc. PBS was used as a negative control (no sample).
row,Compound,amount of GLP-1 secretion compared with no sample
1,rebaudioside B [RebB],significantly larger amounts of GLP-1 secretion than no sample
2,"C[C@H](CC[C@@H](O[C@@H]1O[C@H](CO[C@@H]2O[C@H](CO)[C@@H](O)[C@H](O)[C@H]2O)[C@@H](O)[C@H](O)[C@H]1O[C@@H]1O[C@H](CO)[C@@H](O)[C@H](O)[C@H]1O)C(C)(C)O)[C@H]1CC[C@@]2(C)[C@@H]3CC=C4[C@@H](CC[C@H](O[C@@H]5O[C@H](CO[C@@H]6O[C@H](CO)[C@@H](O)[C@H](O)[C@H]6O)[C@@H](O)[C@H](O)[C@H]5O)C4(C)C)[C@]3(C)[C@H](O)C[C@]12C [MogV, mogroside V]",significantly larger amounts of GLP-1 secretion than no sample
3,rebaudioside C [RebC],significantly larger amounts of GLP-1 secretion than no sample
4,"C=C1C[C@@]23CC[C@H]4[C@@](C)(CCC[C@@]4(C)C(=O)O[C@@H]4O[C@H](CO)[C@@H](O)[C@H](O)[C@H]4O)[C@@H]2CC[C@]1(O[C@@H]1O[C@H](CO)[C@@H](O)[C@H](O)[C@H]1O[C@@H]1O[C@H](CO)[C@@H](O)[C@H](O)[C@H]1O)C3 [stevioside, Stevioside]",significantly larger amounts of GLP-1 secretion than no sample
5,"C=C1C[C@@]23CC[C@H]4[C@@](C)(CCC[C@@]4(C)C(=O)O[C@@H]4O[C@H](CO)[C@@H](O)[C@H](O)[C@H]4O)[C@@H]2CC[C@]1(O[C@@H]1O[C@H](CO)[C@@H](O)[C@H](O[C@@H]2O[C@H](CO)[C@@H](O)[C@H](O)[C@H]2O)[C@H]1O[C@@H]1O[C@H](CO)[C@@H](O)[C@H](O)[C@H]1O)C3 [RebA, Rebaudioside A]",significantly larger amounts of GLP-1 secretion than no sample
